In patent publication US20170290820A1, “METHODS AND COMPOSITIONS FOR TREATING BETA-THALASSEMIA AND SICKLE CELL DISEASE” (Academia Sinica, priority 2013, published 2017):

How the values were obtained:
NF-E4 = NF-E4 mRNA level by relative quantitative RT-PCR; assay type: cell-based, human; details: FIG. 4A; at IC50, 3 days, relative to mock
Method: (§1) FIGS. 4A-4D are graphs showing the expression profiles of the γ globin gene and HbF-related regulators after compounds treatment in the primary human erthroid cells. […] Data are presented as the relative expression level in mean±SEM, N=8. […] Upper panel: For detection of the induction level of γ globin, fifty microgram of total cell lysate was analyzed by western blot analysis using antibody against γ globin, or β-actin. Lower panel: The signal intensity was quantified by an image-analyzing software. The intensity of γ globin expression levels of mock control was set as 1. Data are shown as the mean±SEM, N=5. […] Lower panel: The signal was quantified by an image-analyzing software. […] Total RNA was extracted, and the expression level of γ globin gene was analyzed by relative quantitative RT-PCR. […]
(§2) After 3 days of drug-treatment, the total RNA was extracted by RNA Spin mini kit (Ge-Healthcare) and reverse-transcription was performed by using superscript II (Invitrogen) followed the manufactors instruction. Quantitative PCR was performed on LightCycler with using STBR green master mix followed the manufactors instruction (Roche). The absolute quantitative RT-PCR was calculated by the standard curve with supplying a known copy number of plasmids. The relative quantitative RT-PCR was normalized to the expression levels of the β-actin and compared to the mock control. […]

[1] = tested on: primary human erythroid cells; test: AlamarBlue cell viability / proliferation assay; details: Table 3; primary human erythroid cells, 3 days, proliferation reduced by 50%
β globin = test: absolute quantitative RT-PCR, proportion of β globin mRNA; assay type: cell-based; details: primary human erythroid cells, at IC50, 3 days; mock 88.8%
Method: After 3 days of drug-treatment, the total RNA was extracted by RNA Spin mini kit (Ge-Healthcare) and reverse-transcription was performed by using superscript II (Invitrogen) followed the manufactors instruction. Quantitative PCR was performed on LightCycler with using STBR green master mix followed the manufactors instruction (Roche). The absolute quantitative RT-PCR was calculated by the standard curve with supplying a known copy number of plasmids. The relative quantitative RT-PCR was normalized to the expression levels of the β-actin and compared to the mock control.
To evaluate the specificity of S51021, SS-2394, HU, and NaB in mediating globin genes activation, the amounts of individual P3-liked globin mRNAs were measured by absolute quantitative RT-PCR.
The primary human erythroid cells were treated with HU (145.9 μM), NaB (221.6 μM), S51021 (21.8 μM) or SS2394 (2.3 μM) for 3 days, and the expression levels of each globin mRNA were estimated by absolute quantitative RT-PCR analysis. The proportions of individual 3-like globin chains among the total 3-like globin mRNA are shown. Data are presented as the mean±SEM, N=3.

[2] = solubility in DMSO and H2O; assay type: physicochemical; details: water; H2O; read-out: solubility H2O
histone H4 = histone H4 acetylation by western blot; assay type: cell-based, human; details: FIG. 6; for global acetylation status of histone H4 (total acH4): at IC50, 3 days
Source text: FIG. 6 is a graph showing the acetylation status of histone H4 in primary erythroid cells treating with HU, NaB, S51021 or SS-2394. […] Total histones were extracted by histone extraction buffer. Thirty microgram of histone extract was used for western blot analysis and immunobloted with antibody against histone H4 or acetylated histone H4. Lower panel: The signal intensity was quantified by an image-analyzing software. The intensity of mock control was set as 1. Data are shown as the mean±SEM, N=4.
After 3 days of compound treatment, total protein or histone of the drug-treated cells was extracted. Histone was extracted by histone extraction buffer (10 mM HEPES, 1.5 mM MgCl2, 10 mM KCl, 0.5 mM DTT, 1.5 mM PMSF and 0.2 N HCl) at 4° C. overnight then centrifuged at 13,000 rpm for 5 minutes and collected the supernatant. Thirty microgram of histone extracts were separated in 15% SDS-PAGE and blotted onto PVDF membrane. After blocking with 5% non-fat milk in TBST, the membrane was then incubated with primary antibody against total histone H4 or total acetyl histone H4 at 4° C. overnight. Total protein was extracted by modified RIPA (50 mM Tris-HCl pH7.8, 150 mM NaCl, 1% NP-40, 0.5% sodium deoxycholate, 0.1% SDS, 1 mM EGTA, 5 mM EDTA, 10 mM NaF, 1 mM NaV3O4 and 1× complete, EDTA-free Protease Inhibitor Cocktail). Thirty microgram of total protein extracts were separate by 10% SDS-PAGE and blotted onto PVDF membrane. After blocking with 5% non-fat milk in TBST, the membrane was incubated with primary antibody against BCL11A, p38, p-p38, γ-globin or β-actin at 4° C. overnight. […]
Several HDACi, such as NaB, apicidin, and TSA, have been reported to function as HbF-inducing agents. […] To realize whether the epigenetic modification of histone H4 is manipulated by S51021 or SS-2394 treatment, primary human adult erythroid cells were treated with S51021, SS-2394, HU, or NaB for 3 days, and the acetylation status of cellular histone H4 was then analyzed (FIG. 6).

BCL11A [3] = test: BCL11A protein by western blot; assay type: cell-based, human; details: FIG. 4C, at IC50, 3 days
Method: FIGS. 4A-4D are graphs showing the expression profiles of the γ globin gene and HbF-related regulators after compounds treatment in the primary human erthroid cells. […] Data are presented as the relative expression level in mean±SEM, N=8. […] Upper panel: For detection of the induction level of γ globin, fifty microgram of total cell lysate was analyzed by western blot analysis using antibody against γ globin, or β-actin. Lower panel: The signal intensity was quantified by an image-analyzing software. The intensity of γ globin expression levels of mock control was set as 1. Data are shown as the mean±SEM, N=5. […] Upper panel: For detection of the expression level of BCL11A, thirty microgram of total protein was separated by SDS-PAGE electrophoresis, transferred to PVDF membrane, and immunobloted with antibody against BCL11A and β-actin. Lower panel: The signal was quantified by an image-analyzing software. The intensity of the mock control BCL11A levels were set as 1. Data are shown as the mean±SEM, N=5. FIG. 4D is a graph showing that the HU-nonresponding primary human erythroid cells were treated with HU (145.9 μM), NaB (221.6 μM), S51021 (21.8 μM) or SS-2394 (2.3 μM) for 3 days. Total RNA was extracted, and the expression level of γ globin gene was analyzed by relative quantitative RT-PCR. Data are shown as the mean±SEM, N=3. […]

BCL11A [4] = test: BCL11A mRNA level by relative quantitative RT-PCR; assay type: cell-based, human; details: FIG. 4A; at IC50, 3 days, relative to mock
Method: as §1, §2

NC(=O)NO [HU, hydroxyurea]
expression level of NF-E4 (NF-E4): 0.6 folds | IC50 [1]: 146 µM | β globin proportion of total β-like globin mRNA (β globin): 84.2 ± 1.3% | solubility [2]: > 100 mM | histone deacetylase inhibitor or not (conclusion from acH4) (histone H4): not histone deacetylase inhibitors | global acetylation status of histone H4 (total acH4) (histone H4): not dramatically alternated

CCCC(=O)[O-].[Na+] [NaB, sodium butyrate]
expression level of NF-E4 (NF-E4): 0.6 folds | IC50 [1]: 222 µM | β globin proportion of total β-like globin mRNA (β globin): 87.4 ± 1.0% | BCL11A protein (BCL11A [3]): significant reduction | expression level of BCL11A mRNA (BCL11A [4]): 0.6 folds | global acetylation status of histone H4 (total acH4) (histone H4): significantly enhanced
